Laboratory results taken from ChEMBL document CHEMBL1134961, “[(125)I]-N-[(3-azido-5-iodo)benzyl]dantrolene and [(125)I]-N-[[3-iodo-5-(3-trifluoromethyl-3H-diazirin-3-yl)]benzyl]dantrolene: photoaffinity probes specific for the physiological Ca(2+) release from sarcoplasmic reticulum of skeletal muscle” (Bioorg Med Chem Lett, 2002).
Calls of active or inactive are those of the source. The rule behind the calls is not given here.

Molecular target: Ryanodine receptor 1 (Mus musculus) (UniProt E9PZQ0)
Experiment: Selective inhibition of Ryanodine receptor 1 mediated physiological [Ca2+] release (PCR) from sarcoplasmic reticulum against calcium-induced Ca2+ release (CICR)
Type: functional

Chain of Ryanodine receptor 1 (Mus musculus) (E9PZQ0 whole entry): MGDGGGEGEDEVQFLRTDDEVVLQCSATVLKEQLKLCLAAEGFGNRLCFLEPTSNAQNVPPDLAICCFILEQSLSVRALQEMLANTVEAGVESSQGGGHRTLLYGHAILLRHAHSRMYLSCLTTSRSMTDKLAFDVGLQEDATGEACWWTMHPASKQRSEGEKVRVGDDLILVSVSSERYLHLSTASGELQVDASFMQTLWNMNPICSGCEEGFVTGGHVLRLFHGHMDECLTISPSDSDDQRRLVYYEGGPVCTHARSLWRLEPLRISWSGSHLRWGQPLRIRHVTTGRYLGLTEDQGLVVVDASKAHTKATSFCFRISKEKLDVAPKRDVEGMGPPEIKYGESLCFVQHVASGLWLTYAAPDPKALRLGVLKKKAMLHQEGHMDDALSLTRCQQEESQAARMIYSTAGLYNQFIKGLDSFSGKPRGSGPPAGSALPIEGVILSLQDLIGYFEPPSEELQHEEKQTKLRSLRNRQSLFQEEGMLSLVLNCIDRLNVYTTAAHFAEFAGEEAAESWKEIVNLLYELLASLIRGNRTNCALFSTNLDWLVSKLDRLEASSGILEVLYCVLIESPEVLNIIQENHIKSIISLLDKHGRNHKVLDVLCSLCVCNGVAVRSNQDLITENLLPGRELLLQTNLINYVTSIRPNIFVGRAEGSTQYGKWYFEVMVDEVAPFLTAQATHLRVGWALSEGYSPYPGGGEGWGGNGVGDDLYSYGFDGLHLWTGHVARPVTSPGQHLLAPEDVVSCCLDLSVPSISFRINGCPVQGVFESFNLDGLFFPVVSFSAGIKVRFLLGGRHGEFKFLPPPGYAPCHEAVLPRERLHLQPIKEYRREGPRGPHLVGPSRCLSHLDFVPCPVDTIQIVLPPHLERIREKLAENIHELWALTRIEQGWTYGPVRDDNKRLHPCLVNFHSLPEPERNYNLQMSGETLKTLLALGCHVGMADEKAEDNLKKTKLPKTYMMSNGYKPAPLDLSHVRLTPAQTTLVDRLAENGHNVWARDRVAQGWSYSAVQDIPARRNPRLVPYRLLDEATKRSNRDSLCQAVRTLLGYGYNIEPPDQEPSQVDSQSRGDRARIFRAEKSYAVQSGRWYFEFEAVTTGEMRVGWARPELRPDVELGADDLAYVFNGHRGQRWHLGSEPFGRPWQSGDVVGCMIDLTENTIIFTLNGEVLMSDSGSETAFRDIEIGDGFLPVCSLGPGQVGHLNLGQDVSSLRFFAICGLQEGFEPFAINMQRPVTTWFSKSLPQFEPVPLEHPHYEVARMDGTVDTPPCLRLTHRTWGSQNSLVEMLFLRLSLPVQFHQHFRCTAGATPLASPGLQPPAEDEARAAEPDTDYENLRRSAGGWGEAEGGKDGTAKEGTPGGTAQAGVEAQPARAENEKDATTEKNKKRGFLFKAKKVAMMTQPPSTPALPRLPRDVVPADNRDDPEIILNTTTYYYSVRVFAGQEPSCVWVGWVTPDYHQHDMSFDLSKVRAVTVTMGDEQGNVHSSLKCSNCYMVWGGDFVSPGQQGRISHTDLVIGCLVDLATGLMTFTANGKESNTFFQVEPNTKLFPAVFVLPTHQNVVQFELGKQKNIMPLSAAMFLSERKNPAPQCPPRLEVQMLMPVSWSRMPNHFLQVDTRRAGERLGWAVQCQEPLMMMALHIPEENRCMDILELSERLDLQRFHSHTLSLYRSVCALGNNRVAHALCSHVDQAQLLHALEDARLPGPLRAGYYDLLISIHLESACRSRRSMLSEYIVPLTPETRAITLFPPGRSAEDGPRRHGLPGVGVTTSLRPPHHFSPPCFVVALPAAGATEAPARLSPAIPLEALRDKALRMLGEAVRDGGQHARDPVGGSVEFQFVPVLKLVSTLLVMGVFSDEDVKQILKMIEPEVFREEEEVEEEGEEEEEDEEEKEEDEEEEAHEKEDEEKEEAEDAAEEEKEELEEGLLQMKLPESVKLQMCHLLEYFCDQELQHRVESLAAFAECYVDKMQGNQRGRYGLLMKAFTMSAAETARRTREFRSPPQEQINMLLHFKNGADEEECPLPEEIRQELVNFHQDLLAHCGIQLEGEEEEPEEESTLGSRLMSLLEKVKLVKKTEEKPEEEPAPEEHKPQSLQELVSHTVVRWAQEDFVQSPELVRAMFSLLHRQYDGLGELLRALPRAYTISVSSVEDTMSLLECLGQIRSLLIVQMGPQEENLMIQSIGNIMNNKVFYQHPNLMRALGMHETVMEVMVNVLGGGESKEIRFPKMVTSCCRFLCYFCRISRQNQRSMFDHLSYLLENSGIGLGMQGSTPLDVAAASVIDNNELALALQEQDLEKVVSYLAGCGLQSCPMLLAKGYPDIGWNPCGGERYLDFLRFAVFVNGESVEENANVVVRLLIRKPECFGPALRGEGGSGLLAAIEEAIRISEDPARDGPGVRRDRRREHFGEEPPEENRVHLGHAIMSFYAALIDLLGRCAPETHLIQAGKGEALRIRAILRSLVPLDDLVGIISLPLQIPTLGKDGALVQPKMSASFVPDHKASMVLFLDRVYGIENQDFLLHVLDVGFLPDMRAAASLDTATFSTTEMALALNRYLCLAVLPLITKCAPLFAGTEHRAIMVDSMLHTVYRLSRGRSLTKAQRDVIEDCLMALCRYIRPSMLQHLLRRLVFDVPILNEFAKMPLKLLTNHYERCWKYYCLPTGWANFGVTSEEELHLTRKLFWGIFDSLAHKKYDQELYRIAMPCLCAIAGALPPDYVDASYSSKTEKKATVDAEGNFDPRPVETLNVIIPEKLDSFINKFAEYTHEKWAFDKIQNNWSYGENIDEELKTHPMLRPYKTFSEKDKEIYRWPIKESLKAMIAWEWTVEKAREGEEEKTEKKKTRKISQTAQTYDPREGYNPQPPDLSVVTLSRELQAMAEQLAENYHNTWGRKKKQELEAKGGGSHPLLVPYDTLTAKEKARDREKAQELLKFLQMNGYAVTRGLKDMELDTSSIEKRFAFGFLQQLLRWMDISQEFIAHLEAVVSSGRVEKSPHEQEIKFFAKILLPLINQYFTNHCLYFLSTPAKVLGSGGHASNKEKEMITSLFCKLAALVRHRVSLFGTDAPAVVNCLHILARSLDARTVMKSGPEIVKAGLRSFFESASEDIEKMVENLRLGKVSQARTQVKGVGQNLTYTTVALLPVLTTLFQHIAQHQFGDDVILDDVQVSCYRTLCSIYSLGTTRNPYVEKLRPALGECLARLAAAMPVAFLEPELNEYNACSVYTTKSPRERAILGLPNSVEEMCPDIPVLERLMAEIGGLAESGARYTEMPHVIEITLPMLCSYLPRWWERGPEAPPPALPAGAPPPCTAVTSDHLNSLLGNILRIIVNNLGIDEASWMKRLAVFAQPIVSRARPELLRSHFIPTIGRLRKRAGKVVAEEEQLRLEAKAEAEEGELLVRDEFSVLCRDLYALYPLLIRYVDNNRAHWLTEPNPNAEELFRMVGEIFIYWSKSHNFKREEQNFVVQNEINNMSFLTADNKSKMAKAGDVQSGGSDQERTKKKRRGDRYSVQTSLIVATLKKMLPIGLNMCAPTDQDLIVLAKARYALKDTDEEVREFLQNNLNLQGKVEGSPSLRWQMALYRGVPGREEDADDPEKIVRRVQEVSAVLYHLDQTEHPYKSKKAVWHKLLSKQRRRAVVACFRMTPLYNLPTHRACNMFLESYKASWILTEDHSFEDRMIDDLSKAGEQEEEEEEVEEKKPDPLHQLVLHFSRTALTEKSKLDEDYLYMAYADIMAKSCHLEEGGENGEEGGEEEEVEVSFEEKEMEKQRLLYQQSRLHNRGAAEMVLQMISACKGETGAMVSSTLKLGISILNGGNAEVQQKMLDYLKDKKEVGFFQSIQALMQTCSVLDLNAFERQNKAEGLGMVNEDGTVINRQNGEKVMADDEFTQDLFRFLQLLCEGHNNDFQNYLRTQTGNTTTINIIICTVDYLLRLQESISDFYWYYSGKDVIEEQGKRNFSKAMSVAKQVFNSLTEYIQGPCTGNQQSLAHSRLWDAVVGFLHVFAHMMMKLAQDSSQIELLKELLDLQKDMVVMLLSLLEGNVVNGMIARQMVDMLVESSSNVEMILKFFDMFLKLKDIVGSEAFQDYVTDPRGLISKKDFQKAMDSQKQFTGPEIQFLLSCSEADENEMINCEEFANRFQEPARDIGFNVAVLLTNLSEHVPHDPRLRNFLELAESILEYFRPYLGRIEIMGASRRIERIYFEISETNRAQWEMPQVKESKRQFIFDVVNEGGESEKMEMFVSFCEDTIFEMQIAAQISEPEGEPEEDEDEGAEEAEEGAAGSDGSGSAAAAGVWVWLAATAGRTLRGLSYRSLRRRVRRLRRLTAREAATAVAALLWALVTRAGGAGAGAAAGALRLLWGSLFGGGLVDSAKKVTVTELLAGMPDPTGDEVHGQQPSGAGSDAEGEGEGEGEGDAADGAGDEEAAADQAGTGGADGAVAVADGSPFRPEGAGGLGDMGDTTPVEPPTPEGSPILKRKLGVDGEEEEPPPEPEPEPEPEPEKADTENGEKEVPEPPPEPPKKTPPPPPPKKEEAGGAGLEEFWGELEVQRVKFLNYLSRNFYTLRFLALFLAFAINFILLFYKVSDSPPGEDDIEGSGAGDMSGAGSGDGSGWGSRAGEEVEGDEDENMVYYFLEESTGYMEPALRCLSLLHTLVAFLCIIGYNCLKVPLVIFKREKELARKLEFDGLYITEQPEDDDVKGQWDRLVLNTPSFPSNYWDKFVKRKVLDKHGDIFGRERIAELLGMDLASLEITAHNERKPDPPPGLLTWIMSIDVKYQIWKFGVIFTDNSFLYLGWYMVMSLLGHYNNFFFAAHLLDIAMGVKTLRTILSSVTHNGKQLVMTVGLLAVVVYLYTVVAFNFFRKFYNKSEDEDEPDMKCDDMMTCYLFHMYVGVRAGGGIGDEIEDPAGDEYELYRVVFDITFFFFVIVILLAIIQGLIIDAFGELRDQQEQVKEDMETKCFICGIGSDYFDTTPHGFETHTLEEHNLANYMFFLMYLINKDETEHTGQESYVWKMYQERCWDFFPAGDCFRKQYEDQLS

Compound | Activity
O=C1CN(/N=C/c2ccc(-c3ccc([N+](=O)[O-])cc3)o2)C(=O)N1Cc1cc(I)cc(C2(C(F)(F)F)N=N2)c1 | Active
[N-]=[N+]=Nc1cc(I)cc(CN2C(=O)CN(/N=C/c3ccc(-c4ccc([N+](=O)[O-])cc4)o3)C2=O)c1 | Active
